Reference: US10463639B2, “Compounds as modulators of a mutant CFTR protein and their use for treating diseases associated with CFTR protein malfunction” (INSTYTUT BIOCHEMII I BIOFIZYKI PAN, priority 2010, dated 2019)

How the values were obtained:
Format in all cases: cell-based
ΔF508-CFTR [1] = biological target: T1, ΔF508-CFTR (Homo sapiens, UniProt P13569, DEL508-508); experiment: Whole cell patch-clamp recordings of cAMP-dependent chloride currents in HeLa cells; settings: 24 h treatment, 1 μM (each), compared to controls
T1 construct: expressed in transfected cells; host or cells: HeLa cells, stably transfected (pTracer-based plasmid pTCF-F508del), provided by Pascale Fanen (Inserm U.468)
T1 sequence (P13569 with tags, fused parts or gaps DEL508-508): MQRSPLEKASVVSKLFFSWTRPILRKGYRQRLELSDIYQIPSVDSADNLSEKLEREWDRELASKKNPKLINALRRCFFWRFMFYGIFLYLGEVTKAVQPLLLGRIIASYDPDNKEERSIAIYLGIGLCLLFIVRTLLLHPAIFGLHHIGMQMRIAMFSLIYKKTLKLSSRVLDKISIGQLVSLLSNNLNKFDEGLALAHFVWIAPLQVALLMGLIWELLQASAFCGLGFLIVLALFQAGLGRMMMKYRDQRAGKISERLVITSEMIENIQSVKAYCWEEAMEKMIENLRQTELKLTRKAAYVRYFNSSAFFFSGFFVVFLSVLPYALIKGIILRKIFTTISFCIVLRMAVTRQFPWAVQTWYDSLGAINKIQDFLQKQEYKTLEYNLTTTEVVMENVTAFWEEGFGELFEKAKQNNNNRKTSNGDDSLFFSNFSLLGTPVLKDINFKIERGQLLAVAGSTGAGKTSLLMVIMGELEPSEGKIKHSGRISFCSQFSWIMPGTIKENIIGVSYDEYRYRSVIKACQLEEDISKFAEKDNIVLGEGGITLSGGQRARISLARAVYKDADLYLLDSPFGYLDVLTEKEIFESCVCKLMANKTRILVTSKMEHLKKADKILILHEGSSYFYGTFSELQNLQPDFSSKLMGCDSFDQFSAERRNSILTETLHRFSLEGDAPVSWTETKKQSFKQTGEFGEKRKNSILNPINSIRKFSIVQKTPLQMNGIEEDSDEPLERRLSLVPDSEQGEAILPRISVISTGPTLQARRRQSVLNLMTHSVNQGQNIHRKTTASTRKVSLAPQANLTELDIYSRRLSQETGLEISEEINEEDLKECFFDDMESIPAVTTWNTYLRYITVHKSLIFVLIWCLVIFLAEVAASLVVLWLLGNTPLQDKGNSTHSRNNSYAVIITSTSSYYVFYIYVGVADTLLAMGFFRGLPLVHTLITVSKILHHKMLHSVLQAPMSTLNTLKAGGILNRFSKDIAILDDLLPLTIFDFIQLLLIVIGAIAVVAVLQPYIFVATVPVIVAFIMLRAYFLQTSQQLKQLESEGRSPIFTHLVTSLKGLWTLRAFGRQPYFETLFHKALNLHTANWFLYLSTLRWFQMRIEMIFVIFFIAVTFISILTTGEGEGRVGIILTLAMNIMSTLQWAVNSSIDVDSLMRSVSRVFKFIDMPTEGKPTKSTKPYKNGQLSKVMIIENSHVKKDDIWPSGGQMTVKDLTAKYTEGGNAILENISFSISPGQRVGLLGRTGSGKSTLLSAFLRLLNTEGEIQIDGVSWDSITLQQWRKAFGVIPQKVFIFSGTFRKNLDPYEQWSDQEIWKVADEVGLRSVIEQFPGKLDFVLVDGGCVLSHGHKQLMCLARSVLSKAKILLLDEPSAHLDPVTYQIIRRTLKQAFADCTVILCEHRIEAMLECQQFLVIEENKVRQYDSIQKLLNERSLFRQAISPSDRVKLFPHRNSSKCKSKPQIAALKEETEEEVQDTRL
Protocol: Technique for patch-clamp recordings in the whole cell configuration has been described, such as in Hinzpeter, A. et al. Association between Hsp90 and the ClC-2 chloride channel upregulates channel function. American journal of physiology. Cell physiology 290, C45-56(2006) and Tanguy, G. et al. CSN5 binds to misfolded CFTR and promotes its degradation. Biochimica et biophysica acta 1783, 1189-99(2008). Stably transfected cells were plated in 35 mm cell culture plastic Petri dishes that were mounted on the stage of an inverted microscope. Patch-clamp experiments were performed at room temperature with an Axopatch 200A amplifier controlled by a computer via a digitdata 1440 interface (Axon Intruments, USA). Pipettes were pulled from hard glass (Kimax 51) using a Setter micropipette puller and their tips were fire-polished. Current recordings were performed using the nystatin-perforated patch clamp configuration. Nystatin stock solution (50 mg/ml) was prepared daily in DMSO. The stock solution was diluted (1:250) in the internal solution which was then sonicated during 1 minute. The internal solution contained the following (in mM): 131 NaCl, 2 MgCl2, and 10 Hepes-Na^+, pH 7.3, adjusted with NaOH. […]
Currents were recorded by application of regular voltage pulses of 60 mV amplitude during 1 second, from a holding potential of 0 mV, with an interval of 3 seconds. […]
When maximal stimulation was reached, cells were bathed with 5 μM of the specific CFTRinhibitor, CFTRinh-172, added to the CPT-cAMP solution. CFTR-currents were defined as the differences in current amplitudes recorded during maximum stimulation by CPT-cAMP and after inhibition by CFTRinh-172.
The activity of the different compounds was also evaluated in patch-clamp experiments. FIG. 6a summarizes the mean values of current amplitudes recorded at −60 mV in the different experimental conditions. CFTR-related current density (IΔF508-CFTR; pA/pF) is defined as cAMP-stimulated current minus the current recorded after inhibition by CFTR inh-172 at 5 μM, and normalized to cell capacitance. […]

ΔF508-CFTR [2] = biological target: T1, ΔF508-CFTR; experiment: Iodide efflux (corrector effect) in ΔF508-CFTR HeLa cells after 24 hour pre-treatment; settings: ΔF508-CFTR HeLa cells; for cAMP-stimulated radiolabel iodide efflux: 24 hour pre-treatment, compound at 1 μM
Protocol: Cultures were done at 37° C. in a humidified incubator with 5% CO2.
47(4): p. […] Marivingt-Mounir, C, et al., Synthesis, SAR, crystal structure, and biological evaluation of benzoquinoliziniums as activators of wild-type and mutant cystic fibrosis transmembrane conductance regulator channels. […] 47(4): p. […] After washing, cells were incubated with 1 ml of modified Earle's salt solution. After 1 min, the medium was removed to be counted and was quickly replaced by 1 ml of the same medium. This procedure was repeated every 1 min for 8 min. The first three aliquots were used to establish a stable baseline in efflux buffer alone. Medium containing cocktail aiming to increase intracellular cAMP (10 μM forskolin and 30 μM genistein) was used for next aliquots in order to activate CFTR chloride channels. At the end of the incubation, the medium was recovered, and cells were solubilized in 1 N NaOH. The radioactivity was determined using a g-counter (LKB).
t1 and t2 are successive time points.
Data are presented as the mean±S.E. of n separate experiments.
Differences were considered statistically significant using the Student's t test when the p value was less than 0.05.
To test drug correction of ΔF508-CFTR trafficking and function we evaluated halide permeability by a macroscopic assay using a robotic cell-based methodology using the I^− efflux technique. […]

ΔF508-CFTR [3] = biological target: T1, ΔF508-CFTR; experiment: CFTR immunolocalization by confocal immunofluorescence in HeLa cells; settings: 1 μM, 24 hours
Protocol: (c) Effects of the different compounds used at 1 μM on CFTR localization. Confocal imaging showing the plasma membrane localisation of WT-CFTR and intracellular localisation of ΔF508-CFTR. The effect of drugs is illustrated in panels c to f. Bars: […]. Arrows indicate staining of CFTR at the plasma membrane.
HeLa cells grown on glass coverslips were treated as above and as described in Lipecka, J. et al., Distribution of ClC-2 chloride channel in rat and human epithelial tissues. American journal of physiology. Cell physiology 282, C805-16(2002). Cells were fixed with 4% formaldehyde and permeabilized with 0.1% Triton in PBS. Cells were blocked with 1% bovine serum albumine in PBS/Triton and incubated at 4° C. overnight with the primary antibodies, 24-1 (1:300). After washing and blocking with 5% normal goat serum, cells were incubated with the secondary antibodies. Glass coverslips were mounted using the Vectashield mounting medium (Vector laboratories) and examined by confocal laser microscopy (Zeiss, LSM 510).

Row | CFTR-related current density IΔF508-CFTR (current amplitude at −60 mV) (ΔF508-CFTR [1]) | cAMP-stimulated radiolabel iodide efflux (ΔF508-CFTR [2]) | EC50 (ΔF508-CFTR [2]; wide range of concentrations) [µM] | increase of the effect on iodide efflux when used at 10 μM (ΔF508-CFTR [2]; 10 μM compared with 1 μM) [fold] | EC50 (iodide efflux) (ΔF508-CFTR [2]; wide range of concentrations) | SMILES | CFTR staining / plasma membrane localisation (ΔF508-CFTR [3]) | stimulated efflux at 10 μM compared with WT-CFTR (ΔF508-CFTR [2]; 10 μM)
1 | did not increase current amplitude | significant increase | 0.844 | – | – | O=C(O)c1ccc(C(=O)O)c(C(=O)Nc2ccc3c(c2)Cc2ccccc2-3)c1 [compound 73100, 2-(9H-fluoren-2-ylcarbamoyl)terephthalic acid] | discrete punctuate staining at the plasma membrane was observed in a small fraction of cells | –
2 | did not increase current amplitude | significant increase | 10 | 3 | – | O=P(O)(CCP(=O)(O)c1ccccc1)c1ccccc1 [compound 407882, 2-[hydroxy(phenyl)phosphoryl]ethyl-phenylphosphinic acid] | clear CFTR staining at or near the plasma membrane | comparable to the value observed for WT-CFTR
3 | did not increase current amplitude | significant increase | – | – | could not be precisely determined | O=c1nc(SCc2cccc([N+](=O)[O-])c2)[nH]c2nc[nH]c12 [compound 118208, 2-[(3-nitrophenyl)methylsulfanyl]-3,7-dihydropurin-6-one] | discrete punctuate staining at the plasma membrane was observed in a small fraction of cells | –
